This is an account of results in ChEMBL document CHEMBL1150992, “Synthesis and preparation of an affinity chromatography column for the purification of cytosolic phospholipase A2” (Bioorg Med Chem Lett, 1995).

A short description of assay [1]: Inhibitory activity against cPLA2 was assessed from arachidonic acid (AA) release in cell free assay. In kind it is functional.
The nature of assay [2]: Inhibitory activity against cPLA2 was assessed from arachidonic acid (AA) release in U937 cells. The assay is classed as functional, cell-based. To be noted: U-937.

For orientation: IC50 means the point on the concentration scale where inhibition reaches its midpoint. A lower IC50 goes with greater potency in that assay. With `CCCc1c(OCCCOc2ccc(C(CCCc3ccccc3)SCCC(=O)O)cc2)ccc(C(C)=O)c1O` (configuration not stated), the half-maximal inhibitory concentration (IC50) in assay [1] and in assay [2] was 1 µM each time.
